Our source for the inhibition and IC50 values is ChEMBL document CHEMBL4359829, “Straightforward synthesis and biological evaluation as topoisomerase I inhibitors and antiproliferative agents of hybrid Chromeno[4,3-b][1,5]Naphthyridines and Chromeno[4,3-b][1,5]Naphthyridin-6-ones” (Eur J Med Chem, 2019).

A word on the inhibition: it is the percentage by which the read-out fell short of the control. One may read the IC50 as the concentration that gives 50% inhibition. A higher IC50 goes with weaker potency in that assay.

Assay [1] deals with T1, DNA topoisomerase 1 (Homo sapiens) (UniProt P11387).
T1 sequence (whole entry): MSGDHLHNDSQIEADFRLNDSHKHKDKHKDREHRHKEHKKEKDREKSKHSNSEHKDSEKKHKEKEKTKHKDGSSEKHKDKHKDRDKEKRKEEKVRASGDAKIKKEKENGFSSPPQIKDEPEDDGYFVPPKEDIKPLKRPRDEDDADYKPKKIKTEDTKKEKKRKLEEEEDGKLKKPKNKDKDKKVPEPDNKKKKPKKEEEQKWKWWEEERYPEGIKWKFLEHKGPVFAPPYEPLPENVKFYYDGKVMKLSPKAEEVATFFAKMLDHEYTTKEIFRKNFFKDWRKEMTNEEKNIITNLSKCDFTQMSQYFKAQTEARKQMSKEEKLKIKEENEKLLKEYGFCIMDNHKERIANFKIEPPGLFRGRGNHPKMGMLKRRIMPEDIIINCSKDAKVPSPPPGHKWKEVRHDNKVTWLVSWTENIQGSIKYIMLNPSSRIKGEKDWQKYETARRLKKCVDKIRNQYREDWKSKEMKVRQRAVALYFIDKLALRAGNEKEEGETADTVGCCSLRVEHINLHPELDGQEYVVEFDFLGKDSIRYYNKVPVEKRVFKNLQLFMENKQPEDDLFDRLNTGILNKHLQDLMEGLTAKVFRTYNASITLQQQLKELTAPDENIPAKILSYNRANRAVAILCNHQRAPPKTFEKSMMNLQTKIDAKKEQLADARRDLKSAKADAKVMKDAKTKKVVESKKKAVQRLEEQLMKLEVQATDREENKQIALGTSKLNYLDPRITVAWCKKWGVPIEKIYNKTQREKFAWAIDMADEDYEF
Kind of assay: Inhibition of recombinant human Top1 expressed in Saccharomyces cerevisiae null strain RS190 assessed as decrease in relaxation of supercoiled plasmid DNA at 100 uM using supercoiled plasmid DNA as substrate incubated for 1 min by red staining based DNA relaxation assay relative to camptothecin.

For the next assay, the system named is MRC5. The assay is described as follows: Cytotoxicity against human MRC5 cells incubated for 48 hrs by CCK8 assay. The following applies: MRC5, 48 h. Format: cell-based. A general note: Formazan colour is commonly taken as a measure of viable cells.
For a further assay, the system named is A549. Kind of assay: Antiproliferative activity against human A549 cells incubated for 48 hrs by CCK8 assay. The class given is functional, cell-based. The conditions noted are these: A549, 48 h.
Assay [2] deals with T1, DNA topoisomerase 1 (Homo sapiens). The assay is described as follows: Inhibition of recombinant human Top1 expressed in Saccharomyces cerevisiae null strain RS190 assessed as decrease in relaxation of supercoiled plasmid DNA at 100 uM using supercoiled plasmid DNA as substrate incubated for 3 min by red staining based DNA relaxation assay relative to camptothecin.
Assay [3] has the same target. Kind of assay: Inhibition of recombinant human Top1 expressed in Saccharomyces cerevisiae null strain RS190 assessed as decrease in relaxation of supercoiled plasmid DNA at 100 uM using supercoiled plasmid DNA as substrate incubated for 15 sec by red staining based DNA relaxation assay relative to camptothecin.
A further assay has as its system SK-OV-3. The assay is described as follows: Antiproliferative activity against human SKOV3 cells incubated for 48 hrs by CCK8 assay. The class given is functional, cell-based. The conditions noted are these: SK-OV-3, 48 h.

Molecules are shown by their SMILES.

On to `Fc1ccc(-c2c3c(nc4cccnc24)-c2ccccc2OC3)cc1F`, for which the inhibition amounted to 6% in assay [1], 6% in assay [2] and 84% in assay [3]. For the same compound, the IC50 with MRC5, with A549 and in the assay with SK-OV-3 was over 50 µM throughout.
For `O=C1Oc2ccc(F)cc2[C@H]2Nc3cccnc3[C@@H](c3ccccc3)[C@H]12` (relative stereo), the inhibition was 25% in assay [1], 2% in assay [2] and 30% in assay [3]. Moreover, the IC50 in the assay on MRC5, in the assay with A549 and with SK-OV-3 was over 50 µM throughout.
On to `O=C1Oc2ccccc2[C@H]2Nc3ccc(Br)nc3[C@@H](c3ccccc3)[C@H]12` (relative stereo), for which the inhibition in assay [1], in assay [2] and in assay [3] was 4% throughout. The IC50 with MRC5, in the assay with A549 and in the assay with SK-OV-3 was over 50 µM in each case.
As to `COc1ccc2nc3c(c(-c4ccccc4)c2n1)c(=O)oc1ccccc13`, the inhibition in assay [1] came out at 12%; in assay [2], 12%; in assay [3], 72%. Also, the IC50 in the assay on MRC5, in the assay on A549 and with SK-OV-3 was over 50 µM throughout.
Regarding `Cc1ccc2c(c1)-c1nc3cccnc3c(-c3ccccc3)c1CO2`, the inhibition in assay [1], in assay [2] and in assay [3] was 2% each time. The IC50 in the assay with MRC5, in the assay with A549 and in the assay on SK-OV-3 was over 50 µM in each case.
On to `O=c1oc2ccccc2c2nc3cccnc3c(-c3ccccc3)c12`, for which the inhibition in assay [1] was found to be 2%; in assay [2], 2%; in assay [3] it was 25%. For the same compound, the IC50 was over 50 µM in the assay on MRC5, 9.03 µM in the assay with A549 and over 50 µM with SK-OV-3.
For the compound `COc1ccc2c(n1)[C@@H](c1ccccc1)[C@@H]1C(=O)Oc3ccccc3[C@H]1N2` (relative stereo), the inhibition in assay [1], in assay [2] and in assay [3] was 4% in each case. In addition, the IC50 with MRC5, in the assay with A549 and in the assay on SK-OV-3 was over 50 µM throughout.
As to `Fc1ccc2c(c1)-c1nc3cccnc3c(-c3ccccc3)c1CO2`, the inhibition in assay [1], in assay [2] and in assay [3] was 2% each time. For the same compound, the IC50 in the assay on MRC5, in the assay with A549 and in the assay on SK-OV-3 was over 50 µM throughout.
As to `COc1ccc2nc3c(c(-c4ccccc4)c2n1)COc1ccccc1-3`, the inhibition in assay [1] came to 16%; in assay [2], 15%; in assay [3] it was 86%. The IC50 with MRC5 is over 50 µM; in the assay on A549, 11.7 µM; in the assay with SK-OV-3 it was over 50 µM.
As to `Brc1ccc2nc3c(c(-c4ccccc4)c2n1)COc1ccccc1-3`, the inhibition in assay [1], in assay [2] and in assay [3] was 4% throughout. Moreover, the IC50 in the assay with MRC5, in the assay on A549 and in the assay with SK-OV-3 was over 50 µM throughout.
On to `O=C1Oc2ccccc2[C@H]2Nc3cccnc3[C@@H](c3ccccc3)[C@H]12` (relative stereo), for which the inhibition in assay [1] was found to be 7%; in assay [2], 5%; in assay [3], 5%. For the same compound, the IC50 in the assay on MRC5 is over 50 µM; in the assay with A549, 25.4 µM; in the assay with SK-OV-3, over 50 µM.
Take `COc1ccc2c(n1)[C@@H](c1ccccc1)[C@@H]1COc3ccccc3[C@H]1N2` (relative stereo): the inhibition worked out at 26% in assay [1], 12% in assay [2] and 81% in assay [3]. Also, the IC50 is over 50 µM with MRC5, 5.43 µM in the assay on A549 and over 50 µM with SK-OV-3.
As to `O=c1oc2ccccc2c2nc3ccc(Br)nc3c(-c3ccccc3)c12`, the inhibition in assay [1], in assay [2] and in assay [3] was 4% in each case. Further, the IC50 is over 50 µM in the assay on MRC5, 29 µM with A549 and over 50 µM with SK-OV-3.
Take `Cc1ccc2c(c1)[C@H]1Nc3cccnc3[C@@H](c3ccccc3)[C@@H]1CO2` (relative stereo): the inhibition in assay [1] came to 69%; in assay [2], 19%; in assay [3], 70%. Also, the 50% inhibitory concentration (IC50) is over 50 µM in the assay with MRC5, 7.25 µM in the assay with A549 and 12.7 µM in the assay on SK-OV-3.
Take `c1ccc(-c2c3c(nc4cccnc24)-c2ccccc2OC3)cc1`: the results for the inhibition in assay [1], in assay [2] and in assay [3] were 14%, 2% and 30%, respectively. For the same compound, the IC50 in the assay with MRC5, with A549 and in the assay with SK-OV-3 was over 50 µM in each case.
For the compound `Fc1ccc2c(c1)[C@H]1Nc3cccnc3[C@@H](c3ccccc3)[C@@H]1CO2` (relative stereo), the figures for the inhibition in assay [1], in assay [2] and in assay [3] were 1%, 1% and 2%, respectively. Besides, the values for the IC50 with MRC5, in the assay with A549 and in the assay with SK-OV-3 were over 50 µM, 11.3 µM and over 50 µM, respectively.
Take `c1ccc([C@@H]2c3ncccc3N[C@@H]3c4ccccc4OC[C@@H]23)cc1` (relative stereo): the inhibition in assay [1] worked out at 4%; in assay [2] it was 1%; in assay [3] it was 5%. The results for the IC50 in the assay with MRC5, in the assay with A549 and with SK-OV-3 were over 50 µM, 1.03 µM and 1.75 µM, respectively.
As to `COc1ccc(-c2c3c(nc4cccnc24)-c2ccccc2OC3)cc1`, the inhibition stood at 30% in assay [1], 29% in assay [2] and 29% in assay [3]. Moreover, the concentration for half-maximal inhibition (IC50) in the assay on MRC5 is over 50 µM; with A549, 17.9 µM; with SK-OV-3, over 50 µM.
Consider `O=c1oc2ccc(F)cc2c2nc3cccnc3c(-c3ccccc3)c12`, for which the figures for the inhibition in assay [1], in assay [2] and in assay [3] were 2%, 2% and 26%, respectively. Also, the IC50 in the assay with MRC5, in the assay with A549 and with SK-OV-3 was over 50 µM throughout.
